Experimental data: patent US20240358790A1, “COMPOSITIONS AND METHODS FOR TREATING AUTOIMMUNITY, INCLUDING AUTOIMMUNITY ASSOCIATED WITH CANCER AND CANCER THERAPY” (Interk Peptide Therapeutics Limited, priority 2021, published 2024)
Non-standard residues stand in square brackets, D forms with d. Residues, ends and D or L forms follow the SMILES beside them. No end group written: not given here. ξ: configuration not given here. ξGly(decyl) = CCCCCCCCCCC(N)C(=O)O; 2Adod = 2-aminododecanoic acid

Columns and labels:
[1] = PET-CT uptake of Cu64-labelled NOTA-peptide in lung and blood after SC, IP, oral gavage; format: in vivo; settings: 200 ug SC/IP and 1 mg OG, mice
Procedure: For FIG. 1d, 1,4,7-Triazacyclononane-1,4,7-triacetic acid (NOTA) conjugated peptides were acquired from Auspep, reconstituted in deionised water at 10 mg/mL and used without further purification. Peptides were incubated with ^64Cu at 1000-fold excess of peptide in 0.1 M pH 5.5 ammonium acetate buffer for 45 minutes at 37° C. 1 μL Samples of each solution were taken and mixed 1:1 with 50 mM EDTA. EDTA incubated sample or neat solution was spotted on TLC paper (Agilent iTLC-SG Glass microfiber chromatography paper impregnated with silica gel) and run with 50:50 H2O:ethanol. Detection of radiolabelled species migration was then achieved by imaging on a Bruker In Vivo MS FX Pro imaging system using a radioisotopic phosphor screen. Control experiments were conducted to monitor the elution profile of free ^64Cu and ^64Cu bound to EDTA for quality control. […]
The PET Images were reconstructed using an ordered-subset expectation maximization (OSEM2D) algorithm and analysed using the Inveon Research Workplace software (IRW 4.1) (Siemens) which allows fusion of CT and PET images and definition of regions of interest (ROIs). […] Activity concentrations were then expressed as percent of the decay-corrected injected activity per cm^3 of tissue that can be approximate as percentage injected dose/g (% ID/g). […]

[2] = molecular target: c-Src (Homo sapiens, UniProt P12931); assay: c-Src kinase activity assay ([γ33P-ATP], filtermat); format: biochemical
Procedure: c-Src, Fyn, Hck is incubated with 8 mM MOPS pH 7.0, 0.2 mM EDTA, 250 μM KVEKIGEGTYGVVYK (Cdc2 peptide), 10 mM MgAcetate and [γ33P-ATP] (specific activity approx. 500 cpm/pmol, concentration as required). The reaction is initiated by the addition of the MgATP mix. After incubation for 40 minutes at room temperature, the reaction is stopped by the addition of 3% phosphoric acid solution. 10 μL of the reaction is then spotted onto a P30 filtermat and washed three times for 5 minutes in 75 mM phosphoric acid and once in methanol prior to drying and scintillation counting.

[3] = molecular target: Lck (Homo sapiens, UniProt P06239); assay: Lck kinase activity assay ([γ33P-ATP], filtermat); format: biochemical
Procedure: Lck is incubated with 50 mM Tris pH 7.5, 0.1 mM EGTA, 0.1 mM Na3VO4, 250 μM KVEKIGEGTYGWYK (Cdc2 peptide), 10 mM Magnesium acetate and [γ33P-ATP] (specific activity approx. 500 cpm/pmol, concentration as required). The reaction is initiated by the addition of the Mg/ATP mix. After incubation for 40 minutes at room temperature, the reaction is stopped by the addition of phosphoric acid to a concentration of 0.5%. 10 μL of the reaction is then spotted onto a P30 filtermat and washed four times for 4 minutes in 0.425% phosphoric acid and once in methanol prior to drying and scintillation counting.”

[4] = test system: B16-F10 melanoma cells; assay: SRB proliferation assay, B16-F10 melanoma cells; format: cell-based; settings: 2.5 μM, 72 h
Procedure: (§1) In addition, doxorubicin at 2.5 μM was tested in 5 replicate wells as a positive control. Cells were cultured for a further 72 h in the presence of drug or control before the cell culture medium was removed and the attached cells fixed in ice-cold trichloroacetic acid. […] Each experiment was performed on two independent occasions (biological replicates) and data were analysed in GraphPad Prism 9 using non-linear fit of log (inhibitor) versus response.

[5] = test system: Lewis Lung Cancer cells; assay: SRB proliferation assay, Lewis Lung Cancer cells; format: cell-based; settings: 2.5 μM, 72 h
Procedure: as §1

[6] = molecular target: MAP4K1 (HPK1) (Homo sapiens, UniProt Q92918); assay: MAP4K1 (HPK1) kinase activity; format: biochemical
[7] = test system: CD28; assay: CD28 expression on CD4+ T cells of stimulated PBMCs; format: cell-based, human; settings: PBMCs + anti-CD3, 72 hrs
Procedure: FIG. 7: RSKAKNPLYR-(2Adod)4-NH2 increases CD28 levels on T cells. […] Data presented indicates the mean respective expression in CD4+ T cell populations in response to peptide treatment, +/−SEM, n=4. Data was analysed by two-way ANOVA with Dunnett's post test, *P<0.05, **P<0.01, ***P<0.001, ****P<0.0001. *** indicates all bars under the line are significant compared to vehicle. Red dotted line indicates unstimulated PBMC expression.
Because full activation of MAP kinases requires the presence of the TCR co-receptor, the present inventors sought to examine the expression of CD28 on T cells.

[8] = test system: exhausted CD4+ cells; assay: IL-2 from exhausted CD4+ cells upon restimulation (MBP-Tracker mouse splenocytes); format: cell-based, mice; settings: 72 hrs, multiplex immunoassay
Procedure: Supernatants were collected after 72 hrs in culture to assess IL-2 cytokine production measured by multiplex immunoassay. Data are presented as mean+/−SEM from 4 biological replicates normalised to vehicle control (0). **P<0.01, Non-parametric one way ANOVA (Freidman) with Dunns post-test was used to compare groups at each dose level to lowest level (0.08 μM).
T examine the ability of peptides comprising D-amino acids induce low levels of IL-2, IL-2 expression on exhausted CD4+ cells upon restimulation was examined. In brief, a single spleen per experiment was removed from MBP-Tracker mice and processed to generate a single cell suspension of splenocytes. Cells were resuspended at 3×10^6/mL and stimulated with WT-MBP (control, non-exhausted cells) or APL-MBP (to generate exhausted cells). Cells were stimulated for 72 hr. Following stimulation, T cells were purified by ficoll density gradient and subsequently re-plated at 2×10^6/mL in 20U/mL IL-2 for four days. After 4 days, cells were collected, resuspended (4×10^5/mL, final 2×10^4 per well) and restimulated using irradiated APC (from B10PL×C57BL/6 mice, 4×10^6/mL, final 2×10^5 per well) a single dose of APL-MBP peptide, together with test or reference substance or appropriate controls for 72 hrs. […]

[9] = test system: IL-2; assay: IL-2 ELISA, anti-CD3/anti-CD28 stimulated isolated CD3+ T cells; format: cell-based, human; settings: 72 hrs

Sequence of MAP4K1 (HPK1) (Q92918 whole entry): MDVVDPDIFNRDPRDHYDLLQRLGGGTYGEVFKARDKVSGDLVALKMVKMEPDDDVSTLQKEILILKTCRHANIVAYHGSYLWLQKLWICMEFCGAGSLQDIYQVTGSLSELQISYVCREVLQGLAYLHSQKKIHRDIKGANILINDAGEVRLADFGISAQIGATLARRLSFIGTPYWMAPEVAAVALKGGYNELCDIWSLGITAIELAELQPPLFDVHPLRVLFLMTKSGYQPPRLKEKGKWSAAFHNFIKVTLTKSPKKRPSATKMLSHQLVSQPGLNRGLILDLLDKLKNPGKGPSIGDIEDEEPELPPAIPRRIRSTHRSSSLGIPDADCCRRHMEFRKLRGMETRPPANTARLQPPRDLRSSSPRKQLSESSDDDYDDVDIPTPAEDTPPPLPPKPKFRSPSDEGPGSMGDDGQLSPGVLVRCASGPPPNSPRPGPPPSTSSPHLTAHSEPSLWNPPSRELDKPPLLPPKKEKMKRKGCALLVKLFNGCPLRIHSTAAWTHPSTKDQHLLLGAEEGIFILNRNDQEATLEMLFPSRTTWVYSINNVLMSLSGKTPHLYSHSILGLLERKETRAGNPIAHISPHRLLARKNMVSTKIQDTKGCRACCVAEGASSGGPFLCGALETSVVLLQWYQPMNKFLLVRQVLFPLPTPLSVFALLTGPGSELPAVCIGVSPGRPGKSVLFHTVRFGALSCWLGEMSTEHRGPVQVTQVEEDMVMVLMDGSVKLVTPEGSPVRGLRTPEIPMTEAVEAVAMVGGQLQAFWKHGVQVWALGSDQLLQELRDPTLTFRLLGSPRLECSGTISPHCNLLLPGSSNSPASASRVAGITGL
Sequence of Lck (P06239 whole entry): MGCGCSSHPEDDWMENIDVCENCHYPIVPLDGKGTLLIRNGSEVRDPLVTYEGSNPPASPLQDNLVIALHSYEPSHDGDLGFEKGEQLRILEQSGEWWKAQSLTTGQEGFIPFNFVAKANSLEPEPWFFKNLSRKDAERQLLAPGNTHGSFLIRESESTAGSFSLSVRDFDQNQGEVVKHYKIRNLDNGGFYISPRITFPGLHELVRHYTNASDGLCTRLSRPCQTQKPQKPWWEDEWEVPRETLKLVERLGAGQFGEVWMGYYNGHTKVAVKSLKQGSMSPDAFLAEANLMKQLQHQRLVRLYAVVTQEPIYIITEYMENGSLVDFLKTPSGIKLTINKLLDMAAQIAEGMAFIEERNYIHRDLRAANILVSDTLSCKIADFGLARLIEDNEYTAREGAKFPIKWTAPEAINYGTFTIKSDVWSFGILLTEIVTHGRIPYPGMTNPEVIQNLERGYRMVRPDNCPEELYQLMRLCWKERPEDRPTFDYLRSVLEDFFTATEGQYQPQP

Compound: CCCCCCCCCCC(NC(=O)C(CCCCCCCCCC)NC(=O)C(CCCCCCCCCC)NC(=O)C(CCCCCCCCCC)NC(=O)[C@H](CCCNC(=N)N)NC(=O)[C@H](Cc1ccc(O)cc1)NC(=O)[C@H](CC(C)C)NC(=O)[C@@H]1CCCN1C(=O)[C@H](CC(N)=O)NC(=O)[C@H](CCCCN)NC(=O)[C@H](C)NC(=O)[C@H](CCCCN)NC(=O)[C@H](CO)NC(=O)[C@@H](N)CCCNC(=N)N)C(N)=O (some centres unmarked) [IK14004, RSKAKNPLYR-(2Adod)4-NH2] (H-RSKAKNPLYR[ξGly(decyl)][ξGly(decyl)][ξGly(decyl)][ξGly(decyl)]-NH2; N-terminus assumed)
- tolerability of doses [1]: Well tolerated

Compound: RSKAKNPLYR-(2Adod)3-NH2 (RSKAKNPLYR-{2Adod-2Adod-2Adod-NH2}) [IK14003, … conjugated to three 2-amino dodecanoic acid residues]
- effect on c-Src activity [2]: stimulated c-Src activity above 1 uM

Compound: RSKAKNPLYR [IK14000]
- effect on Lck activity [3]: neither the 10 mer RSKAKNPLYR (designated IK14000) nor 4 lipidic peptide residues designated IK00041 activated Lck
- effect on c-Src activity [2]: inhibits c-Src

Compound: COc1cccc2c1C(=O)c1c(O)c3c(c(O)c1C2=O)C[C@@](O)(C(=O)CO)C[C@@H]3O[C@H]1C[C@H](N)[C@H](O)[C@H](C)O1 [doxorubicin]
- kill in vitro, B16-F10 melanoma cells [4]: 100%
- kill in vitro, Lewis Lung Cancer cells [5]: 100%

Compound: rskaknplyr-(2Adod)4-NH2 ([dR][dS][dK][dA][dK][dN][dP][dL][dY][dR]-{2Adod-2Adod-2Adod-2Adod-NH2}) […-(2Adod)4-NH2 comprising D amino acids]
- effect on MAP4K1 (HPK1) kinase activity [6]: inhibits
- CD28 levels [7]: increased CD28 levels
- IL-2 expression on exhausted CD4+ cells upon restimulation [8]: increases IL-2 expression

Compound: COc1cc(-c2nn([C@H]3CC[C@H](N4CCN(C(C)=O)CC4)CC3)c3ncnc(N)c23)ccc1NC(=O)c1cc2ccccc2n1C [A-770041]
- enhancement of IL-2 production, Lck inhibitor compared with IK14004 [9]: ten-fold greater enhancement
- increase in IL-2 secretion above vehicle control ([9]; A-770041 at 100 nM): 300%
